Experimental data taken from patent US12528818B2, “Compositions and methods for inhibition of RAS” (Leidos Biomedical Research, Inc., priority 2021, dated 2026).
Like-named read-outs stand apart in the source and are kept apart here.

Tested on: pERK in NCI-H358 cells
Assay: Cell-based pERK HTRF assay (pERK inhibition in H358 cells)
Settings: pERK inhibition IC50, NCI-H358 cells, 30 min incubation, read-out: PERK in H358 cell

| IC50 (Homo sapiens, NCI-H358, 0.5 h) | IC50 | SMILES |
| --- | --- | --- |
| < 0.1 µM | – | C=CC(=O)N1C[C@H](C)N(c2nc(OC[C@@H]3CCCN3C)nc3c(F)c(-c4ccc(F)c5sc(N)c(C#N)c45)c(C(F)(F)F)cc23)C[C@H]1C (single isomer, unassigned) [Compound 458] |
| < 0.1 µM | – | C=CC(=O)N1C[C@H](C)N(c2nc(OC[C@@H]3C[C@@H](F)CN3C)nc3c(F)c(-c4ccc(F)c5sc(N)c(C#N)c45)c(C(F)(F)F)cc23)C[C@H]1C [Compound 406] |
| < 0.1 µM | – | C=CC(=O)N1CCC(N(C)c2nc(OC[C@@]34CCCN3C[C@H](OC)C4)nc3c(F)c(-c4ccc(F)c5sc(N)c(C#N)c45)c(C(F)(F)F)cc23)[C@H]1C (stereo partly shown) [Compound 476] |
| < 0.1 µM | – | C=CC(=O)N1CC[C@@H](N(C)c2nc(OC[C@@H]3CC(C)(C)CN3C)nc3c(F)c(-c4ccc(F)c5sc(N)nc45)c(C(F)(F)F)cc23)C1 [Compound 265] |
| – | < 0.1 µM | C=CC(=O)N1CC[C@@H](N(C)c2nc(OC[C@@H]3CC4(CC4)CN3C)nc3c(F)c(-c4ccc(F)c5sc(N)nc45)c(C(F)(F)F)cc23)C1 (atropisomer, axis not shown) [Compound 256] |
| 0.1 to 1 µM | – | C=CC(=O)N1CCC(N(C)c2nc(OC[C@@]34CCCN3C[C@H](F)C4)nc3c(C#N)c(-c4ccc(F)c5sc(N)c(C#N)c45)ccc23)[C@H]1COC (stereo partly shown) [Compound 394] |
| < 0.1 µM | – | C=CC(=O)N1CC[C@@H](N(C)c2nc(OC[C@@]34CCCN3C[C@H](F)C4)nc3c(F)c(-c4ccc(F)c5sc(N)nc45)c(C(F)(F)F)cc23)C1 [Compound 198] |
| 0.1 to 1 µM | – | C=CC(=O)N1CC[C@@H](N(C)c2nc(OC[C@@]34CCCN3C[C@H](F)C4)nc3c(F)c(-c4ccc(F)c5sc(N)nc45)c(OC(F)(F)F)cc23)C1 [Compound 238, 1-((3R)-3-((7-(2-amino-7-fluorobenzo[d]thiazol-4-yl)-8-fluoro-2-(((2R,7aS)-2-fluorotetrahydro-1H-pyrrolizin-7a(5H)-yl)methoxy)-6-(trifluoromethoxy)quinazolin-4-yl)(methyl)amino)pyrrolidin-1-yl)prop-2-en-1-one] |
| < 0.1 µM | – | C=CC(=O)N1CC[C@@H](N(C)c2nc(OC[C@@]34CCCN3C[C@H](F)C4)nc3cc(-c4ccc(F)c5sc(N)c(C#N)c45)c(F)cc23)[C@H]1COC [Compound 391] |

Second part, the molecule before the results:

| SMILES | IC50 (Homo sapiens, NCI-H358, 0.5 h) | IC50 |
| --- | --- | --- |
| C=CC(=O)N1CCN(c2nc(OC[C@@]34CCCN3C[C@H](F)C4)nc3c(F)c(-c4ccc(F)c5sc(N)nc45)c(C(F)(F)F)cc23)C[C@H]1C [Compound 207] | < 0.1 µM | – |
| C=CC(=O)N1C2CC1CN(c1nc(OCC34CCCN3CCC4)nc3c(F)c(-c4ccc(F)c5sc(N)nc45)c(Cl)cc13)C2 [Compound 161] | > 1 µM | – |
| C=CC(=O)N1CCC(N(C)c2nc(OC[C@@]34CCCN3C[C@H](F)C4)nc3c(Cl)c(-c4ccc(F)c5sc(N)c(C#N)c45)c(C#N)cc23)[C@H]1C (stereo partly shown) [Compound 425] | 0.1 to 1 µM | – |
| C=CC(=O)N1C[C@H](C)N(c2nc(OC[C@@]34CCCN3C[C@H](F)C4)nc3c(F)c(-c4ccc(F)c5sc(N)nc45)c(C(F)(F)F)cc23)C[C@H]1C (atropisomer, axis not shown) [Compound 268] | – | < 0.1 µM |
| CC#CC(=O)N1CCN(c2nc(OCC34CCCN3CC(F)(F)C4)nc3c(F)c(-c4ccc(F)c5sc(N)nc45)c(C(F)(F)F)cc23)CC1 (stereo not shown) [Compound 193] | > 1 µM | – |
| C=CC(=O)N1[C@@H](C)CN(c2nc(OC[C@@]34CCCN3C[C@H](F)C4)nc3c(F)c(-c4ccc(F)c5sc(N)c(C#N)c45)c(C(F)(F)F)cc23)C[C@@H]1C [Compound 321] | < 0.1 µM | – |
| C=CC(=O)N1CC[C@H](N(C)c2nc(OC[C@@]34CCCN3C[C@H](F)C4)nc3c(F)c(-c4ccc(F)c5sc(N)c(C#N)c45)c(F)cc23)C1 [Compound 336] | 0.1 to 1 µM | – |
